Test results reported in US7816400B2 (The University of Hong Kong, priority 2007, dated 2010).
“Also recorded” adds a separate entry of the source.

Experiments:
IK.ACh = test: Carbachol-evoked IK.ACh in guinea pig atrial myocytes; assay type: cell-based; settings: for IK.ACh at +50 mV / IK.ACh at −100 mV: carbachol 5 μM; for IK.ACh at +50 mV: control 147.2; for IK.ACh at −100 mV: control −338.3±61.5; for block of carbachol-evoked IK.ACh, in words: 3 and 10 μM
Protocol: (§1) Guinea pigs of either gender (250-300 g) were sacrificed by cervical dislocation after anesthetization with pentobarbital (40 mg kg, i.p.). The procedure related to the use of animals in this invention was approved by the Animal Care and Use Committee for Teaching and Research of University of Hong Kong in accordance with the Guide for the Care and Use of Laboratory Animals (Institute of Laboratory Animal Resources, Commission on Life Sciences, National Research Council, 1996). Left atrial and ventricular myocytes from guinea pig hearts were enzymatically dissociated by the procedure described previously (Li et al., 2002a) and the isolated myocytes were kept in the K^+ storage medium.
(§2) The whole-cell patch-clamp technique was used for electrophysiological recording. Borosilicate glass electrodes (1.2-mm OD) were pulled with a Brown-Flamming puller (model P-97, Sutter Instrument Co, Novato, Calif., USA) and had tip resistances of 2-3 MΩ when filled with pipette solution. Membrane currents were recorded in voltage-clamp mode using an EPC-9 amplifier and Pulse software (HEKA, Lambrecht, Germany). A 3-M KCl-agar salt bridge was used as reference electrode. The tip potentials were compensated before the pipette touched the cell. After a giga-ohm seal was obtained, the cell membrane was ruptured by gentle suction to establish the whole-cell configuration. The cell membrane capacitance (pF) was directly measured using the lock-in module of the Pulse software, and used for normalizing the current in individual cells. The series resistance (Rs) was 3-5 MΩ and was compensated by 50-70% to minimize voltage errors. Perforated patch configuration was used for recording action potential in human atrial cells and IKs in HEK 293 cells as described previously (Li et al., 2002b; Dong et al., 2006). Current signals were low-pass filtered at 5 kHz and stored on the hard disk of an IBM compatible computer.

ICa.L = ICa.L in guinea pig ventricular myocytes; assay type: cell-based; settings: 30 and 100 μM
Protocol: as §1
The Ca^2+-free cardioplegic solution for specimen transport contained (in mM) 50 KH2PO4, 8 MgSO4, 5 adenosine, 10 HEPES, 140 glucose, 100 mannitol, 10 taurine, pH was adjusted to 7.3 with KOH. Tyrode solution contained (in mM) 140 NaCl, 5.4 KCl, 1 MgCl2, 1 CaCl2, 0.33 NaH2PO4, 10 HEPES, 10 glucose, pH was adjusted to 7.4 with NaOH. […] INa was recorded under conditions of K^+-free and a symmetrical Na^+ (5 mM) in pipette and superfusion solutions as described previously (Li at al., 2002a).
The whole-cell patch-clamp technique was used for electrophysiological recording. […] Membrane currents were recorded in voltage-clamp mode using an EPC-9 amplifier and Pulse software (HEKA, Lambrecht, Germany). […]

Kv1.5 = biological target: T1, Kv1.5 (Homo sapiens, UniProt P22460); test: Kv1.5 channel block in stably expressing HEK 293 cells; assay type: cell-based; settings: HEK 293 cells stably expressing Kv1.5, Table 3; read-out: Kv1.5 (IC50)
T1 construct: expressed in transfected cells
Protocol: The established HEK 293 cell lines stably expressing the hERG channel gene, Kv1.5 (Tang et al., 2007), or recombinant human cardiac KCNQ1/KCNE1 channel current (IKs) (Dong et al., 2006) was maintained separately in Dulbecco's modified eagle medium (Invitrogen) supplemented with 10% fetal bovine serum and containing 400 μg/ml G418 (for hERG or Kv1.5 channels) or 100 μg/ml hygromycin (for IKs).
as §2
Other derivatives/analogs studied have no effect or a week inhibitory effect on Kv1.5.

anesthetized dogs [1] = test: In vivo electrophysiology (atrial ERP, QTc) in anesthetized dogs; design: species or system dog; settings: 5 mg/kg intraduodenal, BCL 200 ms, pre-treatment (baseline)
Protocol: Adult mongrel dogs (12-15 kg) were anesthetized with pentobarbital (30 mg/kg i.v.), supplemented during the experiment when needed. The animal was intubated and ventilated with room air. Body temperature was maintained at 37-38° C. with a temperature control system. The left femoral vein was cannulated for maintenance of anesthesia and introducing the mono-phasic action potential (MAP) recording- and pacing-catheters (Boston Scientific Ltd) to the right atrium. The vagus nerves were isolated and divided in the neck. […] A left thoracotomy was performed in the fourth intercostal space, and the pericardium was incised to provide access to the left atrium for introducing the MAP catheter. The catheters were used for recording MAPs of right and left atria, respectively, and for measurement of effective refractory period (ERP). […] A ligation was made at the pylorus with a thick cotton thread to prevent the possible back flow of the duodenum content.
Following a 30-min equilibration period and measurement of atrial excitation threshold with 2-ms duration of stimuli, atrial ERP was determined using a train of 8 basic stimuli (S1, twice-diastolic threshold) followed by an identical premature stimulus (S2). The basic cycle lengths (BCL) of 200, 250 and 300 ms were applied in both right and left atria. S2 was initially delivered late in diastole in 5-ms decrements until a response was not elicited by the S2 indicated on the MAP recording. The ERP was defined as the longest S1-S2 interval failing a propagated response, and the procedure was repeated for three times for each measurement. MAP, ECG and blood pressure signals were continuously monitored and stored on an IBM compatible PC computer using a multiple channels data acquisition system (RM-6280C, Chengdu Instrument Ltd, Chendu, China).
The ERP measurement was then repeated every hour post drug administration for 6 hours. Excitation threshold of both right and left atria was verified before ERP each measurement. • 1.7.2.
The ERPs were determined in anesthetized dogs using the BCLs of 300, 250, and 200 ms by introducing S1-S2 via a programmed cardiac stimulator (FIG. 10A).

anesthetized dogs [2] = test: Experimental vagotonic AF in anesthetized dogs; assay type: in vivo, dog; settings: for summarized anti-AF efficacy: vehicle 0%; for animals in which sustained AF was not observed: vehicle: sustained AF in 100%; for prevention of AF induction, in words: 5 and 10 mg/kg intraduodenal, P<0.05 vs vehicle
Protocol: Sustained vagotonic AF was generated in anesthetized dogs by introducing two MAP catheters respectively into the right atrium and the left ventricle along with stimulation of the divided bilateral vagal nerves in the neck. […] Ventricular pacing was performed with 2 ms voltage pulses (2.5 Hz, 150% diastolic threshold) when vagal nerves were continuously stimulated. AF was generated by the BCL 100-ms S1 followed by S2, lasting for 10 min. […] The sustained AF could be repeatedly generated and terminated by stopping vagal stimulation. AF incidence and AF duration were recorded before and at different time points (0.5, 1, 1.5, 2, 3, and 4h) after intraduodenal administration of drugs.
AF was induced by S1-S2 stimulation at 100 ms BCL with bilateral vagal stimulation (see Methods & FIG. 12) at certain time points during the 0.5 to 4 h period following intraduodenal administration. AF lasted for 10 min and terminated once vagal stimulation was stopped. No AF occurrence or shortened AF duration during the continuous vagal stimulation were considered to represent prevention of AF.

[3] = Water solubility (statement); assay type: physicochemical; settings: for injection application
hERG channels = hERG channels (Homo sapiens, UniProt Q12809); test: cell-based
Sequence of hERG channels (Q12809 whole entry): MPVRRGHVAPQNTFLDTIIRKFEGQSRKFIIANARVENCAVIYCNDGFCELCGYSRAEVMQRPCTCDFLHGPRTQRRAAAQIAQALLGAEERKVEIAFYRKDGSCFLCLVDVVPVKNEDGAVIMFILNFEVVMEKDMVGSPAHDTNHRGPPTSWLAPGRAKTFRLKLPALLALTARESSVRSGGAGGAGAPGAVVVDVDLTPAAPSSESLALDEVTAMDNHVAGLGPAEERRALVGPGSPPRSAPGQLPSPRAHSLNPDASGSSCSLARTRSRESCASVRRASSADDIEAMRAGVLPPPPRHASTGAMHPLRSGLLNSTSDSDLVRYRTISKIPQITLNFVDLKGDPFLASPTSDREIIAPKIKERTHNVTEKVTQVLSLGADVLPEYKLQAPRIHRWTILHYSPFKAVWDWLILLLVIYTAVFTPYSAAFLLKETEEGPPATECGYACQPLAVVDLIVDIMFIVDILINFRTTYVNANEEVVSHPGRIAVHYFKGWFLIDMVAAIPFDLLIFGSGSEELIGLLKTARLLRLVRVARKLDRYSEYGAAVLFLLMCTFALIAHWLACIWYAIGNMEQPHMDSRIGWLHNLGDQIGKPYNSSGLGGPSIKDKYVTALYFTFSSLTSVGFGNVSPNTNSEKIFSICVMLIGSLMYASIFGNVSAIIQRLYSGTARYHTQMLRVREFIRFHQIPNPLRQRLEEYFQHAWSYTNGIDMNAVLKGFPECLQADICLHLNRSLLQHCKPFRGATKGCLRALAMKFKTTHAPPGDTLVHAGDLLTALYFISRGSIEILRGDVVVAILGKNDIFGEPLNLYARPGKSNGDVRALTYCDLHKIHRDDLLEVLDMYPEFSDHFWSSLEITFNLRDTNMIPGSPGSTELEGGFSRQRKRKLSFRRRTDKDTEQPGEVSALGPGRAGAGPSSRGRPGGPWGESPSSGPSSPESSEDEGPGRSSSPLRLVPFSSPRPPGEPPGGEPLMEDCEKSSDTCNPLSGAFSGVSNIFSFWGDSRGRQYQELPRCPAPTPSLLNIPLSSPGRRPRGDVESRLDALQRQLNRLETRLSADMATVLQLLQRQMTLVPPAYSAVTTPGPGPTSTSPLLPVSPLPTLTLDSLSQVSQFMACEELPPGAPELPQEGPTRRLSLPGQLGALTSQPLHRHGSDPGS

T1 sequence (P22460 whole entry): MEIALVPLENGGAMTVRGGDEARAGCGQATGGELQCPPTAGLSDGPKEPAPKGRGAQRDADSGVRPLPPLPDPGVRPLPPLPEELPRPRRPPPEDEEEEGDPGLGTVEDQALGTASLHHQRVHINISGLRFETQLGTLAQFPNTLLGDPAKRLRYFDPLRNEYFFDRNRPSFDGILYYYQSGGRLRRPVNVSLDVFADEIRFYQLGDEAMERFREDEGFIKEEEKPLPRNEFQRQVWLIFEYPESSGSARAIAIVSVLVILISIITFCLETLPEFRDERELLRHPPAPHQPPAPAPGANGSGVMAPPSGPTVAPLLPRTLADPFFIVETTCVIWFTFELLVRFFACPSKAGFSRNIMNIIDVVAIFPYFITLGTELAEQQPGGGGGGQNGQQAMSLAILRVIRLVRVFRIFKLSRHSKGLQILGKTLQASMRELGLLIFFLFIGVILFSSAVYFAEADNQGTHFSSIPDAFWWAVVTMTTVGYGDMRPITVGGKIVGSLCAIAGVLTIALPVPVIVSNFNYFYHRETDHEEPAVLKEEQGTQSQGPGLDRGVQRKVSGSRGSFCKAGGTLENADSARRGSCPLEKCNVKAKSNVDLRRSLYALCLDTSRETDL

COc1ccc(-c2cc(=O)c3c(O)cc(O)cc3o2)cc1 [Acacetin, 5,7-dihydroxy-4′-methoxyflavone]
IK.ACh at +50 mV (IK.ACh; 3 μM, n=5): 87.8±36.1 pA | IK.ACh at −100 mV (IK.ACh; 3 μM, n=5): −180.2±36.7 pA | IK.ACh at +50 mV (IK.ACh; 10 μM, n=6): 55.7±26.2 pA | IK.ACh at −100 mV (IK.ACh; 10 μM, n=6): −75.6±21.1 pA | block of carbachol-evoked IK.ACh, in words (IK.ACh): substantially blocked | block of carbachol-evoked IK.ACh, in words (IK.ACh; listed as acacetin): substantially inhibits | effect on ICa.L, in words (ICa.L): no effect; also recorded: no inhibition | effect on ICa.L, in words (ICa.L; listed as acacetin): no effects | IC50 (Kv1.5): 3.4 µM | right atrial ERP (ms), BCL 200 ms (anesthetized dogs [1]): 87.2 ± 7.9 ms | summarized anti-AF efficacy (anesthetized dogs [2]; 2.5 mg/kg intraduodenal): 50% | animals in which sustained AF was not observed (anesthetized dogs [2]; 2.5 mg/kg intraduodenal): 50% | summarized anti-AF efficacy (anesthetized dogs [2]; 5 mg/kg intraduodenal): 85.7% | animals in which sustained AF was not observed (anesthetized dogs [2]; 5 mg/kg intraduodenal): 57% | summarized anti-AF efficacy (anesthetized dogs [2]; 10 mg/kg intraduodenal): 85.7% | animals in which sustained AF was not observed (anesthetized dogs [2]; 10 mg/kg intraduodenal): 57% | prevention of AF induction, in words (anesthetized dogs [2]): significantly prevented AF | prevention of AF induction, in words (anesthetized dogs [2]; listed as acacetin): significantly prevented AF induction | incidence of AF, in words (anesthetized dogs [2]; acacetin 2.5, 5, 10 mg/kg, sotalol 5 mg/kg, 1.5-2.5 h after intraduodenal administration): reduced the incidence of AF | water solubility, in words [3]: not water soluble | IC50 (hERG channels): 32.4 µM
